Laboratory results from paper PMC4052943 (BioMed Research International, 2014).
Where two headings read alike, the source gives them in different places.

Tests used:
[1] = system: Salmonella typhimurium TA102; assay: Ames antimutagenicity assay (preincubation);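 also: compound and mutagen preincubated 30 min at 37 °C before adding bacteria, His+ revertant colonies counted after 48 h at 37 °C, inhibition relative to mutagen-alone minus negative-control revertants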
Method: (§1) In the preincubation experiment, test compounds and mutagen, each having a volume of 0.1 mL of varying concentrations, were preincubated at 37°C for 30 min and then 0.1 mL of 1 × 10^7 CFU/mL density of the bacterial culture was added, followed by the addition of 2.5 mL of top agar at 45°C (containing 0.5% NaCl and 0.6% agar) supplemented with 0.5 mM histidine-biotin. […] The combined solutions were vortexed and poured onto minimal glucose plates (40% glucose solution and Vogel Bonner medium). The plates were incubated at 37°C for 48 h and the numbers of histidine-independent revertants colonies were scored.
(§2) Survival of the bacteria was routinely monitored for each experiment. Parallel controls were run with compounds alone at all concentrations to test the possible toxicity. The concentrations of the test samples for investigating the antimutagenicity were 50, 100, 200, and 500 μM. […] All the test samples and mutagens were dissolved in DMSO (final conc., 0.01%). […] Plates were set up in triplicate for each concentration and the entire experiment was repeated three times. Inhibition of mutagenicity was expressed as percentage decrease of reverse mutation and calculated as (1) Percent inhibition=[(a−b)/(a−c)]×100, where a = number of histidine revertants induced by mutagen, b = number of histidine revertants induced by mutagen in the presence of test compound, and c = number of revertants induced in negative control.

[2] = system: BP-induced DNA adducts (rat liver microsomes, st-DNA); assay: Microsomal BP-DNA adducts, 32P-postlabeling; type: biochemical; settings: for BP-induced DNA adducts: BP 1 μM, rat liver microsomes, st-DNA
Method: st-DNA (300 μg/mL) was preincubated with 50 mM Tris-HCl (pH 7.5), 1 mM MgCl2, 2.5 mM glucose-6-phosphate, 1 U/mL G6PDH, 0.5 mM NADP+, and α-naphthoflavone-induced rat liver microsomal proteins (1 mg/mL) in 1 mL for 10 min, in the presence of vehicle alone and PC and EA at 20 and 40 μM. […] The incubation was continued for another 30 min at 37°C and then reaction was terminated by the addition of EDTA and centrifugation (9,000 g; 10 min). DNA was isolated from the supernatant by removal of RNA and proteins by digestions with RNases A and T1 and proteinase K and a series of extractions with phenol, phenol: Sevag (chloroform : isoamyl alcohol, 24 : 1), and Sevag, followed by precipitation of the DNA with ethanol. The DNA concentration was estimated spectrophotometrically.
DNA adducts were analyzed by ^32P-postlabeling as described earlier. Briefly, 10 μg of DNA was digested with micrococcal nuclease and spleen phosphodiesterase (MN/SPD). Before further treatment with nuclease P1 to enrich DNA adducts, an aliquot was removed for evaluation of normal nucleotide levels. DNA adducts and normal nucleotides were labelled with [γ-^32P]ATP and T4 polynucleotide kinase. Labelled adducts were separated by multidirectional polyethyleneimine (PEI)-cellulose TLC using the following solvents: D1, 1.0 M sodium phosphate, pH 6.0; D3, 4 M lithium formate/7 M urea, pH 3.5; D4, 4 M ammonium hydroxide/isopropanol (1 : 0.9); and D5, 1.7 M sodium phosphate, pH 6.0. Normal nucleotides were resolved in 180 mM sodium phosphate, pH 6.0, by one-directional PEI-cellulose TLC. DNA adducts and normal nucleotides were detected and quantified by Packard InstantImager.

[3] = system: Salmonella typhimurium TA98; assay: Ames antimutagenicity assay (preincubation); settings: for inhibition at 50 µM / inhibition at 100 µM / inhibition at 250 µM / inhibition at 500 µM: Salmonella enterica, TYPHIMURIUM;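 as to all read-outs here: test compound and mutagen preincubated 30 min at 37°C before adding bacteria, then His+ revertant colonies counted after 48 h plating, inhibition relative to mutagen-only versus negative-control revertants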
Method: as §1, §2

SMILES: O=c1oc2c(O)c(O)cc3c(=O)oc4c(O)c(O)cc1c4c23 [Ellagic acid, ellagic acid]
- inhibition at 500 µM ([1]; Salmonella enterica, TYPHIMURIUM, read-out: % inhibition of mutagenicity, TA 102, 500 μM + NaN3, no S9): 62.3%
- Number of His+ revertants colonies/plate ([1]; TA 102, 50 μM + 2AF, S9): 1276.0 ± 38.0 colonies/plate
- Number of His+ revertants colonies/plate ([1]; TA 102, 50 μM + BP, S9): 653.0 ± 34.7 colonies/plate
- Number of His+ revertants colonies/plate ([1]; TA 102, 50 μM + MMS, no S9): 1071.0 ± 16.7 colonies/plate
- Number of His+ revertants colonies/plate ([1]; TA 102, 50 μM + NaN3, no S9): 345.3 ± 26.7 colonies/plate
- Number of His+ revertants colonies/plate ([1]; TA 102, 100 μM + 2AF, S9): 924.0 ± 25.3 colonies/plate
- Number of His+ revertants colonies/plate ([1]; TA 102, 100 μM + BP, S9): 595.0 ± 24.1 colonies/plate
- Number of His+ revertants colonies/plate ([1]; TA 102, 100 μM + MMS, no S9): 956.0 ± 19.6 colonies/plate
- Number of His+ revertants colonies/plate ([1]; TA 102, 100 μM + NaN3, no S9): 328.0 ± 28.2 colonies/plate
- Number of His+ revertants colonies/plate ([1]; TA 102, 250 μM + BP, S9): 514.0 ± 21.4 colonies/plate
- Number of His+ revertants colonies/plate ([1]; TA 102, 250 μM + MMS, no S9): 810.0 ± 19.1 colonies/plate
- Number of His+ revertants colonies/plate ([1]; TA 102, 250 μM + NaN3, no S9): 308.0 ± 23.6 colonies/plate
- Number of His+ revertants colonies/plate ([1]; TA 102, 500 μM + 2AF, S9): 431.0 ± 13.6 colonies/plate
- Number of His+ revertants colonies/plate ([1]; TA 102, 500 μM + BP, S9): 366.0 ± 25.0 colonies/plate
- Number of His+ revertants colonies/plate ([1]; TA 102, 500 μM + MMS, no S9): 506.0 ± 13.5 colonies/plate
- Number of His+ revertants colonies/plate ([1]; TA 102, 500 μM + NaN3, no S9): 288.3 ± 19.2 colonies/plate
- BP-induced DNA adducts ([2]; 20 μM test compound): 58.6 ± 2.8 DNA adducts/10^8 nucleotides
- BP-induced DNA adducts ([2]; 40 μM test compound): 50.9 ± 8.1 DNA adducts/10^8 nucleotides
- inhibition of BP-induced DNA adducts ([2]; 40 μM, BP with rat liver microsomes, cofactors, DNA): 77%
- inhibition at 50 µM ([3]; read-out: % inhibition of mutagenicity, TA 98, 50 μM + 2AF, S9): 19.4%
- inhibition at 50 µM ([3]; read-out: % inhibition of mutagenicity, TA 98, 50 μM + BP, S9): 22.2%
- inhibition at 50 µM ([3]; read-out: % inhibition of mutagenicity, TA 98, 50 μM + MMS, no S9): 22.2%
- inhibition at 100 µM ([3]; read-out: % inhibition of mutagenicity, TA 98, 100 μM + 2AF, S9): 39.6%
- inhibition at 100 µM ([3]; read-out: % inhibition of mutagenicity, TA 98, 100 μM + BP, S9): 48.2%
- inhibition at 100 µM ([3]; read-out: % inhibition of mutagenicity, TA 98, 100 μM + MMS, no S9): 34%
- inhibition at 100 µM ([3]; read-out: % inhibition of mutagenicity, TA 98, 100 μM + NaN3, no S9): 27.9%
- inhibition at 250 µM ([3]; read-out: % inhibition of mutagenicity, TA 98, 250 μM + BP, S9): 62.3%
- inhibition at 250 µM ([3]; read-out: % inhibition of mutagenicity, TA 98, 250 μM + MMS, no S9): 50%
- inhibition at 250 µM ([3]; read-out: % inhibition of mutagenicity, TA 98, 250 μM + NaN3, no S9): 50%
- inhibition at 500 µM ([3]; read-out: % inhibition of mutagenicity, TA 98, 500 μM + 2AF, S9): 80%
- inhibition at 500 µM ([3]; read-out: % inhibition of mutagenicity, TA 98, 500 μM + BP, S9): 78.6%
- inhibition at 500 µM ([3]; read-out: % inhibition of mutagenicity, TA 98, 500 μM + MMS, no S9): 69%
- inhibition at 500 µM ([3]; read-out: % inhibition of mutagenicity, TA 98, 500 μM + NaN3, no S9): 64.2%
- Number of His+ revertants colonies/plate ([3]; TA 98, 50 μM + 2AF, S9): 214.3 ± 13.9 colonies/plate
- Number of His+ revertants colonies/plate ([3]; TA 98, 50 μM + BP, S9): 140.0 ± 12.2 colonies/plate
- Number of His+ revertants colonies/plate ([3]; TA 98, 50 μM + MMS, no S9): 53.0 ± 1.2 colonies/plate
- Number of His+ revertants colonies/plate ([3]; TA 98, 100 μM + 2AF, S9): 171.0 ± 9.5 colonies/plate
- Number of His+ revertants colonies/plate ([3]; TA 98, 100 μM + BP, S9): 107.3 ± 7.9 colonies/plate
- Number of His+ revertants colonies/plate ([3]; TA 98, 100 μM + MMS, no S9): 48.3 ± 2.0 colonies/plate
- Number of His+ revertants colonies/plate ([3]; TA 98, 100 μM + NaN3, no S9): 48.3 ± 2.7 colonies/plate
- Number of His+ revertants colonies/plate ([3]; TA 98, 250 μM + BP, S9): 86.3 ± 5.8 colonies/plate
- Number of His+ revertants colonies/plate ([3]; TA 98, 250 μM + MMS, no S9): 44.0 ± 2.1 colonies/plate
- Number of His+ revertants colonies/plate ([3]; TA 98, 250 μM + NaN3, no S9): 43.3 ± 2.6 colonies/plate
- Number of His+ revertants colonies/plate ([3]; TA 98, 500 μM + 2AF, S9): 76.3 ± 6.1 colonies/plate
- Number of His+ revertants colonies/plate ([3]; TA 98, 500 μM + BP, S9): 60.7 ± 10.5 colonies/plate
- Number of His+ revertants colonies/plate ([3]; TA 98, 500 μM + MMS, no S9): 37.3 ± 2.6 colonies/plate
- Number of His+ revertants colonies/plate ([3]; TA 98, 500 μM + NaN3, no S9): 38.0 ± 1.7 colonies/plate
